According to BindingDB's records for doi:10.1016/s0028-3908(97)00038-5 (Smithkline Beecham Pharmaceuticals, 1997):
pKi: −log10 of the molar value.

Experiments:
[1] = biological target: Tyrosine-protein kinase Fyn (Homo sapiens, UniProt P06241)
[2] = biological target: 5-hydroxytryptamine receptor 1B (Cricetulus griseus, UniProt P46636)
[3] = biological target: T1, Alpha-1B adrenergic receptor (Mesocricetus auratus, UniProt P18841)
T1 sequence (P18841 whole entry): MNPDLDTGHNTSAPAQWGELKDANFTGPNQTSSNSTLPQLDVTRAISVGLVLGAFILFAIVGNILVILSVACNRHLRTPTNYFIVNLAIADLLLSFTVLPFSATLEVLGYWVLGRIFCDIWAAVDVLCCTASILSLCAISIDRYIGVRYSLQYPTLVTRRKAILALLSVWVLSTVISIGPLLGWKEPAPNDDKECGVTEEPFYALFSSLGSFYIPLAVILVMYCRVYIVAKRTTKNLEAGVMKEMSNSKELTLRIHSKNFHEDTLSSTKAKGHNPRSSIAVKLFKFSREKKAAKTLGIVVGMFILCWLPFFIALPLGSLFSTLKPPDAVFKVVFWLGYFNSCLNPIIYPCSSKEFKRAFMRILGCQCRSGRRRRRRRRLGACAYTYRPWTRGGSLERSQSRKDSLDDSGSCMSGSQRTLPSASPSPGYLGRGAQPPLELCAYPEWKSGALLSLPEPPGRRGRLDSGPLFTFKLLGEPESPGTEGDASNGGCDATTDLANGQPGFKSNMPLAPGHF

D(2) dopamine receptor = D(2) dopamine receptor (Mesocricetus auratus, UniProt A0A1U7QAF5)
D(2) dopamine receptor, sequence (A0A1U7QAF5 whole entry): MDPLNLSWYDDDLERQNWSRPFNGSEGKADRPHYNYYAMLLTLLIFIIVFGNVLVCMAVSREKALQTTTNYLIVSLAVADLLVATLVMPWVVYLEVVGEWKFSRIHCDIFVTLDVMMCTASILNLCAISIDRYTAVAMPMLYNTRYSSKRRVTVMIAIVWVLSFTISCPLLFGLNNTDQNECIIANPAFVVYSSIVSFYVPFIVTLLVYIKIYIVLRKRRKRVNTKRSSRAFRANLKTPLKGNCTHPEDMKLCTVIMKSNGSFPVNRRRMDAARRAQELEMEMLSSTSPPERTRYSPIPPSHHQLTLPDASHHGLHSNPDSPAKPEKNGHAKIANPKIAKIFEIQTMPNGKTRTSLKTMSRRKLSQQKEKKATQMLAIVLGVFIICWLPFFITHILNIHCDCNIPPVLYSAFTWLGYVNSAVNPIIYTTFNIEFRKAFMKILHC

[4] = biological target: 5-hydroxytryptamine receptor 4 (Sus scrofa, UniProt Q29006)
5-hydroxytryptamine receptor 4, sequence (Q29006 whole entry): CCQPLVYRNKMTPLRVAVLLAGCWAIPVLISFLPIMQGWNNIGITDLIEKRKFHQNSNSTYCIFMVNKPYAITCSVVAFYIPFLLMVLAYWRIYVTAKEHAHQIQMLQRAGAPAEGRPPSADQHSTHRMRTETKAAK

D(3) dopamine receptor = D(3) dopamine receptor (Cricetulus griseus, UniProt A0A3Q0CXS4)
D(3) dopamine receptor, sequence (A0A3Q0CXS4 whole entry): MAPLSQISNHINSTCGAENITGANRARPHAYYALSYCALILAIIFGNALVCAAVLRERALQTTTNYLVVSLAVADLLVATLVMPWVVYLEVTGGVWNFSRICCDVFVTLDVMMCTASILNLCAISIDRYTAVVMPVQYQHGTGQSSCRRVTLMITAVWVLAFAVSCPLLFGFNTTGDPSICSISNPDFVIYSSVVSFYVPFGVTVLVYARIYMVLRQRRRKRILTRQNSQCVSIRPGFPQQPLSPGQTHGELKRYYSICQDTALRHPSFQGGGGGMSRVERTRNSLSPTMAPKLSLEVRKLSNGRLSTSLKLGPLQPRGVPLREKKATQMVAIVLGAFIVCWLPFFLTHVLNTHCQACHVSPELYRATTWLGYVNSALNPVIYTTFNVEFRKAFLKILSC

[5] = biological target: 5-hydroxytryptamine receptor 7 (Homo sapiens, UniProt P34969)
5-hydroxytryptamine receptor 7, sequence (P34969 whole entry): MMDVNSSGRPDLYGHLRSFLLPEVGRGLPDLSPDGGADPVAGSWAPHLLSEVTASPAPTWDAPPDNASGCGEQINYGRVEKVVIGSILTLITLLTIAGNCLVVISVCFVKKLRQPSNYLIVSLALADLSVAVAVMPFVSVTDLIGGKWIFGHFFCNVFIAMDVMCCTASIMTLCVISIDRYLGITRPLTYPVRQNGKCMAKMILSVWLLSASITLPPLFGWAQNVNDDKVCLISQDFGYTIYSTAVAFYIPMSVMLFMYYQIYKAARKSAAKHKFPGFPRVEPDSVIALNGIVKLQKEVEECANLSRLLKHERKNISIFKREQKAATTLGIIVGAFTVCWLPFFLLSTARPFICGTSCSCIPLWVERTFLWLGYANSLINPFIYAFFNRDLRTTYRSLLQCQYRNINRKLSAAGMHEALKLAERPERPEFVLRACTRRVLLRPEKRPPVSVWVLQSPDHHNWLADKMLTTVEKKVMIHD

Tyrosine-protein kinase Fyn, sequence (P06241 whole entry): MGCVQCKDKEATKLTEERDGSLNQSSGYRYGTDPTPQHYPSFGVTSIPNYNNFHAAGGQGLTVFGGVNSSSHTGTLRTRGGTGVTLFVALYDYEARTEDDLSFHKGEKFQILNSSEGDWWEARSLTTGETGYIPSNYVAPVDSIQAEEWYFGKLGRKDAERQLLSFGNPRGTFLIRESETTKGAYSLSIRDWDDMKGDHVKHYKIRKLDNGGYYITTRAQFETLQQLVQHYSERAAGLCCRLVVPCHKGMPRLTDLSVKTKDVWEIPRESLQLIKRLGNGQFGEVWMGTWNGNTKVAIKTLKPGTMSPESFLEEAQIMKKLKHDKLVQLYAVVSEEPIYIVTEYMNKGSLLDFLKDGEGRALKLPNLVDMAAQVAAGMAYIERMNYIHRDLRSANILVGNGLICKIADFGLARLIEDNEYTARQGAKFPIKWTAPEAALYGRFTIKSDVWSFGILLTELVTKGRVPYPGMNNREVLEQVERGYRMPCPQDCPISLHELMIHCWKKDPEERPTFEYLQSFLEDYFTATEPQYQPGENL
5-hydroxytryptamine receptor 1B, sequence (P46636 whole entry): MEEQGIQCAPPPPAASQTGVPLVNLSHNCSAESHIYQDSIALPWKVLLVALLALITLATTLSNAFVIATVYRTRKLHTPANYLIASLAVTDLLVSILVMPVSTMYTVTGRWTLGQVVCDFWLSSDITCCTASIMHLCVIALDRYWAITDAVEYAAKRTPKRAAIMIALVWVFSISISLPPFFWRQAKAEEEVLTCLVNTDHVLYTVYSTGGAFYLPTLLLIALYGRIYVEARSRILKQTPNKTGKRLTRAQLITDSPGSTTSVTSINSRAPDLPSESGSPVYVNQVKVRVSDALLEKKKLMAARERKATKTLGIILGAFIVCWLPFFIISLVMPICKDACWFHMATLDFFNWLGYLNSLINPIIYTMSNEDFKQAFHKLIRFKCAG

## Cc1cc2c(cc1Cl)N(C(=O)Nc1ccc(Oc3cccnc3C)nc1)CC2 [CAS_181632-25-7]
[1]
  pKi: 6.00
[2]
  pKi: 6.40
[3]
  pKi: < 5.00
D(2) dopamine receptor
  pKi: 6.20
[4]
  pKi: 5.50
D(3) dopamine receptor
  pKi: 6.20
[5]
  pKi: 6.10
